According to US20240287089A1, “Preparation and Uses of 7-Azaindenoisoquinolines” (Purdue Research Foundation, priority 0001, published 2024):

What was measured:
SF-539 (CNS) = experiment: NCI-60 cytotoxicity assay; type: cell-based; conditions: Homo sapiens; CNS SF-539, 48 h; read-out: Cytotoxicity GI50
Experimental: (§1) The antiproliferative activities of the indenoisquinoline compounds are determined in the NCI-60 cancer cell lines of the National Cancer Institute Developmental Therapeutics Program (NCI-DTP). […] Cancer cells are incubated with the test compounds at five concentrations ranging from 100 μM to 10 nM for 48 h. After the treated cancer cells are stained with sulforhodamine B dye, the percentage growth is plotted as a function of the common logarithm of the tested compound concentration. […] The approximate average of GI50 values across the entire panel of NCI-60 cancer cell lines for each compound is recorded as the MGM value.
(§2) NCI-60 Cytotoxicity Assay. Compounds were submitted to the National Cancer Institute Developmental Therapeutic Program to determine their growth-inhibitory potentials in NCI-60 cell lines. All compounds satisfied the pre-screening proceeded into the 5-dose cell viability assay, in which cells were treated for 48 h at 5 dosages ranging from 100 μM to 10 nM.

UACC-62 (Melanoma) = experiment: NCI-60 cytotoxicity assay; type: cell-based, human; conditions: Homo sapiens; Melanoma UACC-62, 48 h; read-out: Cytotoxicity GI50
Experimental: as §1, §2

OVCAR-3 (Ovarian) = experiment: NCI-60 cytotoxicity assay; type: cell-based, human; conditions: Homo sapiens; Ovarian OVCAR-3, 48 h; read-out: Cytotoxicity GI50
Experimental: as §1, §2

HOP-62 (Lung) = experiment: NCI-60 cytotoxicity assay; type: cell-based, human; conditions: Homo sapiens; Lung HOP-62, 48 h; read-out: Cytotoxicity GI50
Experimental: as §1, §2

MCF7 (Breast) = experiment: NCI-60 cytotoxicity assay; type: cell-based, human; conditions: Homo sapiens; Breast MCF7, 48 h; read-out: Cytotoxicity GI50
Experimental: as §1, §2

HCT-116 (Colon) = experiment: NCI-60 cytotoxicity assay; type: cell-based, human; conditions: Homo sapiens; Colon HCT-116, 48 h; read-out: Cytotoxicity GI50
Experimental: as §1, §2

DU-145 (Prostate) = experiment: NCI-60 cytotoxicity assay; type: cell-based, human; conditions: Homo sapiens; Prostate DU-145, 48 h; read-out: Cytotoxicity GI50
Experimental: as §1, §2

SN12C (Renal) = experiment: NCI-60 cytotoxicity assay; type: cell-based, human; conditions: Homo sapiens; Renal SN12C, 48 h; read-out: Cytotoxicity GI50
Experimental: as §1, §2

NCI-60 cancer cell lines = experiment: NCI-60 cytotoxicity assay, MGM; type: cell-based; conditions: Homo sapiens; read-out: MGM (average GI50 across NCI-60 panel)
Experimental: as §1, §2

[1] = Brain penetration and plasma/brain pharmacokinetics in combination with Temodar or Lynparza; conditions: for Vd: iv, 10 mg/kg, Vss—obs
Experimental: A similar analysis was performed with LMP744 and LMP400 in combination with Temodar and Lynparza.

[2] = 10 mg/kg IV + Lynparza 100 mg/kg PO, 0.25 h
[3] = 10 mg/kg IV + Lynparza 100 mg/kg PO, 0.5 h
[4] = 10 mg/kg IV + Lynparza 100 mg/kg PO, 1 h
[5] = 10 mg/kg IV + Lynparza 100 mg/kg PO, 2 h
[6] = 10 mg/kg IV + Lynparza 100 mg/kg PO, 4 h
[7] = 10 mg/kg IV + Lynparza 100 mg/kg PO, 8 h
[8] = 10 mg/kg IV + Lynparza 100 mg/kg PO, 24 h
[9] = LMP400 10 mg/kg IV + Temador 125 mg/kg PO, 0.25 h
[10] = LMP400 10 mg/kg IV + Temador 125 mg/kg PO, 0.5 h
[11] = LMP400 10 mg/kg IV + Temador 125 mg/kg PO, 2 h
[12] = LMP400 10 mg/kg IV + Temador 125 mg/kg PO, 4 h
[13] = LMP400 10 mg/kg IV + Temador 125 mg/kg PO, 8 h
[14] = LMP400 10 mg/kg IV + Temador 125 mg/kg PO, 24 h
[15] = brain, 10 mg/kg IV + Lynparza 100 mg/kg PO
[16] = brain, LMP400 10 mg/kg IV + Temador 125 mg/kg PO
[17] = plasma, 10 mg/kg IV + Lynparza 100 mg/kg PO
[18] = plasma, LMP400 10 mg/kg IV + Temador 125 mg/kg PO
[19] = LMP744 20 mg/kg IV + Temador 125 mg/kg PO, 0.25 h
[20] = LMP744 20 mg/kg IV + Temador 125 mg/kg PO, 0.5 h
[21] = LMP744 20 mg/kg IV + Temador 125 mg/kg PO, 1 h
[22] = LMP744 20 mg/kg IV + Temador 125 mg/kg PO, 2 h
[23] = LMP744 20 mg/kg IV + Temador 125 mg/kg PO, 4 h
[24] = LMP744 20 mg/kg IV + Temador 125 mg/kg PO, 8 h
[25] = LMP744 20 mg/kg IV + Temador 125 mg/kg PO, 24 h
[26] = brain, LMP744 20 mg/kg IV + Temador 125 mg/kg
[27] = plasma, LMP744 20 mg/kg IV + Temador 125 mg/kg

COc1cc2c3c(n(CCCn4ccnc4)c(=O)c2cc1OC)-c1nc2c(cc1C3=O)OCO2 [G102, 6-(3-(1H-Imidazol-1-yl)propyl)-2,3-dimethoxy-5H-[1,3]dioxolo[4″,5″:5′,6′]pyrido[3′,2′:4,5]cyclopenta[1,2-c]isoquinoline-5,12(6H)-dione]
GI50 (SF-539 (CNS)): 39 nM
GI50 (UACC-62 (Melanoma)): 42 nM
GI50 (OVCAR-3 (Ovarian)): 33400 nM
GI50 (HOP-62 (Lung)): 29 nM
GI50 (MCF7 (Breast)): 26 nM
GI50 (HCT-116 (Colon)): 310 nM
GI50 (DU-145 (Prostate)): 58 nM
GI50 (SN12C (Renal)): 440 nM
GI50 (NCI-60 cancer cell lines): 780 nM

COc1cc2c3c(n(CCCN4CCOCC4)c(=O)c2cc1OC)-c1nc2c(cc1C3=O)OCO2 [G101, 2,3-Dimethoxy-6-(3-morpholinopropyl)-5H-[1,3]dioxolo[4″,5″:5′,6′]pyrido[3′,2′:4,5]cyclopenta[1,2-c]isoquinoline-5,12(6H)-dione]
GI50 (SF-539 (CNS)): 230 nM
GI50 (UACC-62 (Melanoma)): 150 nM
GI50 (OVCAR-3 (Ovarian)): 4610 nM
GI50 (HOP-62 (Lung)): 51 nM
GI50 (MCF7 (Breast)): 39 nM
GI50 (HCT-116 (Colon)): 460 nM
GI50 (DU-145 (Prostate)): 420 nM
GI50 (SN12C (Renal)): 2720 nM
GI50 (NCI-60 cancer cell lines): 930 nM

COc1cc2c3c(n(CCCN4CCOCC4)c(=O)c2cc1OC)-c1cc2c(cc1C3=O)OCO2 [LMP400, indotecan]
Brain Conc [1, 2]: 14924 ± 107 nM
Brain/Plasma Conc Ratio [1, 2]: 4.58
Plasma Conc [1, 2]: 3258 ± 295 nM
Brain Conc [1, 3]: 12083 ± 1787 nM
Brain/Plasma Conc Ratio [1, 3]: 5.42
Plasma Conc [1, 3]: 2231 ± 419 nM
Brain Conc [1, 4]: 6670 ± 431 nM
Plasma Conc [1, 4]: 1787 ± 169 nM
Brain Conc [1, 5]: 3766 ± 408 nM
Brain/Plasma Conc Ratio [1, 5]: 2.73
Plasma Conc [1, 5]: 1381 ± 84 nM
Brain Conc [1, 6]: 2666 ± 265 nM
Brain/Plasma Conc Ratio [1, 6]: 2.83
Plasma Conc [1, 6]: 941 ± 190 nM
Brain Conc [1, 7]: 1162 ± 104 nM
Plasma Conc [1, 7]: 491 ± 53 nM
Brain Conc [1, 8]: 235 ± 76 nM
Plasma Conc [1, 8]: 111 ± 39 nM
Brain/Plasma Conc Ratio [1, 9]: 5.99
Plasma Conc [1, 9]: 2311 ± 274 nM
Brain Conc [1, 10]: 10074 ± 1157 nM
Brain/Plasma Conc Ratio [1, 10]: 5.20
Plasma Conc ([1]; LMP400 10 mg/kg IV + Temador 125 mg/kg PO, 1 h): 1944 ± 211 nM
Brain/Plasma Conc Ratio [1, 11]: 3.16
Plasma Conc [1, 11]: 1041 ± 57 nM
Brain Conc [1, 12]: 1722 ± 226 nM
Brain/Plasma Conc Ratio [1, 12]: 2.79
Plasma Conc [1, 12]: 617 ± 24 nM
Brain Conc [1, 13]: 919 ± 165 nM
Brain/Plasma Conc Ratio [1, 13]: 1.91
Plasma Conc [1, 13]: 481 ± 104 nM
Brain Conc [1, 14]: 177 ± 70 nM
Brain/Plasma Conc Ratio [1, 14]: 0.96
AUCInf [1, 15]: 20928 ng·h/g
AUClast [1, 15]: 19983 ng·h/g
AUC—% Extrap—obs [1, 15]: 4.51%
Cmax [1, 15]: 12173 ng/g
T1/2 [1, 15]: 6.01 h
AUCInf [1, 16]: 16590 ng·h/g
AUClast [1, 16]: 15811 ng·h/g
AUC—% Extrap—obs [1, 16]: 4.70%
Cmax [1, 16]: 9080 ng/g
MRTInf—obs [1, 16]: 5.67 h
T1/2 [1, 16]: 6.35 h
Tmax [1, 16]: 0.0830 h
concentration at 0.25 h ([1]; mouse, brain, intravenous, Brain Conc, LMP400 10 mg/kg IV + Temador 125 mg/kg PO, 0.25 h): 13800 ± 638 nM
concentration at 1 h ([1]; mouse, brain, intravenous, Brain Conc, LMP400 10 mg/kg IV + Temador 125 mg/kg PO, 1 h): 5360 ± 276 nM
concentration at 2 h ([1]; mouse, brain, intravenous, Brain Conc, LMP400 10 mg/kg IV + Temador 125 mg/kg PO, 2 h): 5290 ± 321 nM
concentration at 0.5 h ([1]; mouse, plasma, intravenous, Plasma Conc, LMP400 10 mg/kg IV + Temador 125 mg/kg PO, 0.5 h): 1940 ± 274 nM
Vd ([1]; mouse, plasma, plasma, 10 mg/kg IV + Lynparza 100 mg/kg PO): 10.4 L/kg
Vd ([1]; mouse, plasma, plasma, LMP400 10 mg/kg IV + Temador 125 mg/kg PO): 11.9 L/kg
AUCInf [1, 17]: 7144 ng·h/mL
AUClast [1, 17]: 6642 ng·h/mL
AUClast/D [1, 17]: 664 h·ng/mL per mg/kg
AUC—% Extrap—obs [1, 17]: 7.02%
C0 [1, 17]: 2286 ng/mL
Cl_obs [1, 17]: 23.3 mL/min/kg
T1/2 [1, 17]: 6.74 h
AUCInf [1, 18]: 6248 ng·h/mL
AUClast [1, 18]: 5823 ng·h/mL
AUClast/D [1, 18]: 582 h·ng/mL per mg/kg
AUC—% Extrap—obs [1, 18]: 6.80%
C0 [1, 18]: 3042 ng/mL
Cl_obs [1, 18]: 26.7 mL/min/kg
MRTInf—obs [1, 18]: 7.41 h
T1/2 [1, 18]: 7.03 h

COc1cc2c3c(n(CCCNCCO)c(=O)c2cc1OC)-c1cc2c(cc1C3=O)OCO2 [LMP744]
Brain Conc [1, 2]: 89 ± 19 nM
Brain/Plasma Conc Ratio [1, 2]: 0.46
Plasma Conc [1, 2]: 1356 ± 229 nM
Brain Conc [1, 3]: 780 ± 24 nM
Brain/Plasma Conc Ratio [1, 3]: 0.83
Plasma Conc [1, 3]: 940 ± 155 nM
Brain Conc [1, 4]: 825 ± 250 nM
Brain/Plasma Conc Ratio [1, 4]: 2.05
Plasma Conc [1, 4]: 402 ± 29 nM
Brain Conc [1, 5]: 850 ± 58 nM
Brain/Plasma Conc Ratio [1, 5]: 2.64
Plasma Conc [1, 5]: 322 ± 88 nM
Brain Conc [1, 6]: 548 ± 28 nM
Brain/Plasma Conc Ratio [1, 6]: 2.91
Plasma Conc [1, 6]: 188 ± 54 nM
Brain Conc [1, 7]: 557 ± 66 nM
Brain/Plasma Conc Ratio [1, 7]: 7.74
Plasma Conc [1, 7]: 72 ± 26 nM
Brain Conc [1, 8]: 457 ± 61 nM
Brain/Plasma Conc Ratio [1, 8]: 20.30
Plasma Conc [1, 8]: 13 ± 2 nM
Brain Conc [1, 19]: 1093 ± 168 nM
Brain/Plasma Conc Ratio [1, 19]: 0.49
Plasma Conc [1, 19]: 2238 ± 465 nM
Brain Conc [1, 20]: 1199 ± 243 nM
Brain/Plasma Conc Ratio [1, 20]: 0.89
Plasma Conc [1, 20]: 1854 ± 101 nM
Brain Conc [1, 21]: 1390 ± 145 nM
Brain/Plasma Conc Ratio [1, 21]: 1.35
Plasma Conc [1, 21]: 1027 ± 202 nM
Brain Conc [1, 22]: 1328 ± 188 nM
Brain/Plasma Conc Ratio [1, 22]: 2.49
Plasma Conc [1, 22]: 534 ± 143 nM
Brain Conc [1, 23]: 1272 ± 188 nM
Brain/Plasma Conc Ratio [1, 23]: 3.58
Plasma Conc [1, 23]: 355 ± 37 nM
Brain Conc [1, 24]: 1244 ± 78 nM
Plasma Conc [1, 24]: 139 ± 17 nM
Brain Conc [1, 25]: 955 ± 76 nM
Brain/Plasma Conc Ratio [1, 25]: 46
Plasma Conc [1, 25]: 21 ± 4 nM
AUClast [1, 15]: 5860 ng·h/g
Cmax [1, 15]: 373 ng/g
Tmax [1, 15]: 2.00 h
AUClast [1, 26]: 12185 ng·h/g
Cmax [1, 26]: 611 ng/g
Tmax [1, 26]: 1.00 h
AUCInf [1, 17]: 1535 ng·h/mL
AUClast [1, 17]: 1491 ng·h/mL
AUClast/D [1, 17]: 149 h·ng/mL per mg/kg
AUC—% Extrap—obs [1, 17]: 2.83%
C0 [1, 17]: 2072 ng/mL
Cl_obs [1, 17]: 109 mL/min/kg
MRTInf—obs [1, 17]: 4.33 h
T1/2 [1, 17]: 5.43 h
Vss—obs [1, 17]: 28.2 L/kg
AUCInf [1, 27]: 2881 ng·h/mL
AUClast [1, 27]: 2813 ng·h/mL
AUClast/D [1, 27]: 141 h·ng/mL per mg/kg
AUC—% Extrap—obs [1, 27]: 2.37%
C0 [1, 27]: 4973 ng/mL
Cl_obs [1, 27]: 116 mL/min/kg
MRTInf—obs [1, 27]: 4.09 h
T1/2 [1, 27]: 5.20 h
Vss—obs [1, 27]: 28.4 L/kg
